Laboratory results published in ChEMBL document CHEMBL1201862, “PubChem BioAssay data set” (2004).
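Compound exposure: 48 hours, 5 concentrations, 96-well plates. GI50: concentration for 50% inhibition of growth.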 Activity calls are given as the source filed them. Cut-off read from the data, not from the text of the source: active = GI50 up to about 1.1 µM and inactive = higher.

Assays:
Assay in all cases: NCI anticancer screen, dose series, 48 h
786-0 = test system: 786-0
A498 = test system: A498
A549 = test system: A549
ACHN = test system: ACHN
BT-549 = test system: BT-549
CAKI-1 = test system: CAKI-1
CCRF-CEM = test system: CCRF-CEM
COLO 205 = test system: COLO 205
DU-145 = test system: DU-145
EKVX = test system: EKVX
HCC 2998 = test system: HCC 2998
HCT-116 = test system: HCT-116
HCT-15 = test system: HCT-15
HL-60 = test system: HL-60
HOP-62 = test system: HOP-62
HOP-92 = test system: HOP-92
HT-29 = test system: HT-29
Hs-578T = test system: Hs-578T
IGROV-1 = test system: IGROV-1
K562 = test system: K562
LOX IMVI = test system: LOX IMVI
M14 = test system: M14
MCF7 = test system: MCF7
MDA-MB-231 = test system: MDA-MB-231
MDA-MB-435 = test system: MDA-MB-435
MDA-N = test system: MDA-N
Malme-3M = test system: Malme-3M
NCI-H226 = test system: NCI-H226
NCI-H23 = test system: NCI-H23
NCI-H460 = test system: NCI-H460
NCI-H522 = test system: NCI-H522
NCI/ADR-RES = test system: NCI/ADR-RES
OVCAR-3 = test system: OVCAR-3
OVCAR-4 = test system: OVCAR-4
OVCAR-5 = test system: OVCAR-5
OVCAR-8 = test system: OVCAR-8
PC-3 = test system: PC-3
RXF 393 = test system: RXF 393
SF-268 = test system: SF-268
SF-295 = test system: SF-295
SF-539 = test system: SF-539
SK-MEL-28 = test system: SK-MEL-28
SK-MEL-2 = test system: SK-MEL-2
SK-MEL-5 = test system: SK-MEL-5
SK-OV-3 = test system: SK-OV-3
SN12C = test system: SN12C
SNB-19 = test system: SNB-19
SNB-75 = test system: SNB-75
SR = test system: SR
SW-620 = test system: SW-620
TK-10 = test system: TK-10
U-251 = test system: U-251
UACC-257 = test system: UACC-257
UACC-62 = test system: UACC-62
UO-31 = test system: UO-31
KM12 = test system: KM12
MOLT-4 = test system: MOLT-4
RPMI-8226 = test system: RPMI-8226
T47D = test system: T47D

## C=CCN1C(=O)CC(=O)N(NC2=NNC3(C(=O)N2)c2ccccc2-c2ccccc23)C1=S
786-0
  GI50: 38.5 µM (inactive)
A498
  GI50: 34.8 µM (inactive)
A549
  GI50: 34.2 µM (inactive)
ACHN
  GI50: 34.4 µM (inactive)
BT-549
  GI50: 45 µM (inactive)
CAKI-1
  GI50: 48.3 µM (inactive)
CCRF-CEM
  GI50: 34 µM (inactive)
COLO 205
  GI50: 21.7 µM (inactive)
DU-145
  GI50: 44.5 µM (inactive)
EKVX
  GI50: 29.4 µM (inactive)
HCC 2998
  GI50: 38.6 µM (inactive)
HCT-116
  GI50: 28.4 µM (inactive)
HCT-15
  GI50: 35.7 µM
HL-60
  GI50: 27.9 µM (inactive)
HOP-62
  GI50: 26.7 µM (inactive)
HOP-92
  GI50: 15.4 µM (inactive)
HT-29
  GI50: 37.9 µM (inactive)
Hs-578T
  GI50: 13.6 µM (inactive)
IGROV-1
  GI50: 38.9 µM (inactive)
K562
  GI50: 31.5 µM (inactive)
LOX IMVI
  GI50: 42.7 µM (inactive)
M14
  GI50: > 100 µM (inactive)
MCF7
  GI50: 25.8 µM (inactive)
MDA-MB-231
  GI50: > 100 µM (inactive)
MDA-MB-435
  GI50: 44.5 µM (inactive)
MDA-N
  GI50: > 100 µM (inactive)
Malme-3M
  GI50: 38 µM (inactive)
NCI-H226
  GI50: 13.8 µM (inactive)
NCI-H23
  GI50: 29.2 µM (inactive)
NCI-H460
  GI50: 26.1 µM (inactive)
NCI-H522
  GI50: 32.6 µM (inactive)
NCI/ADR-RES
  GI50: 25.4 µM (inactive)
OVCAR-3
  GI50: 28.4 µM (inactive)
OVCAR-4
  GI50: 29.4 µM (inactive)
OVCAR-5
  GI50: 53.7 µM (inactive)
OVCAR-8
  GI50: 29.2 µM (inactive)
PC-3
  GI50: 23.9 µM (inactive)
RXF 393
  GI50: 27.7 µM (inactive)
SF-268
  GI50: 51.3 µM (inactive)
SF-295
  GI50: 37 µM (inactive)
SF-539
  GI50: 59.4 µM (inactive)
SK-MEL-28
  GI50: 49.9 µM (inactive)
SK-MEL-2
  GI50: 25.2 µM (inactive)
SK-MEL-5
  GI50: 31.4 µM (inactive)
SK-OV-3
  GI50: 42.2 µM (inactive)
SN12C
  GI50: 37.2 µM (inactive)
SNB-19
  GI50: 48.8 µM (inactive)
SNB-75
  GI50: 48.2 µM (inactive)
SR
  GI50: 15.6 µM (inactive)
SW-620
  GI50: 38.5 µM (inactive)
TK-10
  GI50: 64.1 µM (inactive)
U-251
  GI50: 38 µM (inactive)
UACC-257
  GI50: 27.5 µM (inactive)
UACC-62
  GI50: 28.5 µM (inactive)
UO-31
  GI50: 31.8 µM (inactive)

## N#C/C(C(=O)Nc1ccc(Cl)cc1)=C(/N)N1CCCC1
786-0
  GI50: > 100 µM (inactive)
A498
  GI50: > 100 µM (inactive)
A549
  GI50: > 100 µM (inactive)
ACHN
  GI50: > 100 µM (inactive)
BT-549
  GI50: > 100 µM (inactive)
CAKI-1
  GI50: > 100 µM (inactive)
CCRF-CEM
  GI50: > 100 µM (inactive)
COLO 205
  GI50: > 100 µM (inactive)
DU-145
  GI50: > 100 µM (inactive)
EKVX
  GI50: > 100 µM (inactive)
HCC 2998
  GI50: > 100 µM (inactive)
HCT-116
  GI50: > 100 µM (inactive)
HCT-15
  GI50: > 100 µM
HL-60
  GI50: 0.635 µM (active)
HOP-62
  GI50: > 100 µM (inactive)
HOP-92
  GI50: > 100 µM (inactive)
IGROV-1
  GI50: > 100 µM (inactive)
K562
  GI50: > 100 µM (inactive)
KM12
  GI50: > 100 µM (inactive)
LOX IMVI
  GI50: > 100 µM (inactive)
M14
  GI50: > 100 µM (inactive)
MCF7
  GI50: > 100 µM (inactive)
MDA-MB-435
  GI50: > 100 µM (inactive)
MDA-N
  GI50: > 100 µM (inactive)
MOLT-4
  GI50: > 100 µM (inactive)
NCI-H226
  GI50: > 100 µM (inactive)
NCI-H23
  GI50: > 100 µM (inactive)
NCI-H460
  GI50: > 100 µM (inactive)
NCI/ADR-RES
  GI50: > 100 µM (inactive)
OVCAR-3
  GI50: > 100 µM (inactive)
OVCAR-5
  GI50: > 100 µM (inactive)
OVCAR-8
  GI50: > 100 µM (inactive)
PC-3
  GI50: > 100 µM (inactive)
RPMI-8226
  GI50: > 100 µM (inactive)
SF-295
  GI50: > 100 µM (inactive)
SF-539
  GI50: > 100 µM (inactive)
SK-MEL-28
  GI50: > 100 µM (inactive)
SK-MEL-2
  GI50: > 100 µM (inactive)
SK-MEL-5
  GI50: > 100 µM (inactive)
SK-OV-3
  GI50: > 100 µM (inactive)
SN12C
  GI50: > 100 µM (inactive)
SNB-19
  GI50: > 100 µM (inactive)
SNB-75
  GI50: > 100 µM (inactive)
SR
  GI50: > 100 µM (inactive)
SW-620
  GI50: > 100 µM (inactive)
T47D
  GI50: > 100 µM (inactive)
U-251
  GI50: > 100 µM (inactive)
UACC-257
  GI50: > 100 µM (inactive)
UACC-62
  GI50: > 100 µM (inactive)
UO-31
  GI50: > 100 µM (inactive)
